{"source": "patent US11072634B2", "about": "“Inhibitors of transglutaminases” (Zedira GmbH, priority 2016, dated 2021)", "note": "Where a SMILES comes first, the peptide text is derived from it. [ ]: non-standard residue; d: D form. The star is where a group is joined. Nle(5,6-dioxo,6-NHMe) = CNC(=O)C(=O)CC[C@H](N)C(=O)O; Isopropoxycarbonyl = CC(C)OC(=O)*; Hyp = O=C(O)[C@@H]1C[C@@H](O)CN1; Aib = CC(C)(N)C(=O)O"}
{"target": "T1, recombinant human tissue transglutaminase (rhTG2) (Homo sapiens, UniProt P21980)", "T1 construct": "purchased Zedira 1022 (so in the source); T022)", "T1 sequence (P21980 1-687)": "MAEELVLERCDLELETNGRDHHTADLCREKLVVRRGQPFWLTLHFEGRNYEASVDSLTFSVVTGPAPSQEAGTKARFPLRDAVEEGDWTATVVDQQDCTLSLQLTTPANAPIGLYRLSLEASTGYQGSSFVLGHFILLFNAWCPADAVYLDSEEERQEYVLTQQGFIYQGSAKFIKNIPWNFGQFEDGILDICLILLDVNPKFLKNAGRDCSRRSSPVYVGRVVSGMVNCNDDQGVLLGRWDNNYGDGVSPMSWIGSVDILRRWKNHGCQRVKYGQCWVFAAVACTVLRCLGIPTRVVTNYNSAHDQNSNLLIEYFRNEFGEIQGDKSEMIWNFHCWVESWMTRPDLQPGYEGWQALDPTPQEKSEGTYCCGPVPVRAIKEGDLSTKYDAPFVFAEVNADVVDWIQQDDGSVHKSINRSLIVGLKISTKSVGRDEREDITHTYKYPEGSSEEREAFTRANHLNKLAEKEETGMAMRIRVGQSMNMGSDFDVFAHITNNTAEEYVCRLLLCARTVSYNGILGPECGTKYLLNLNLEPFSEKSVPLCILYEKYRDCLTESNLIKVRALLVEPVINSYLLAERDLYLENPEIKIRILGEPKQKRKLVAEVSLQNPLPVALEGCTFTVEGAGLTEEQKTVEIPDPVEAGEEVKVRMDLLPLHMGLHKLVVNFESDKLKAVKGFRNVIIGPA", "assay": "Inhibition of rec. human tissue transglutaminase (fluorescence, Abz-APE(CAD-DNP)QEA-OH)", "assay_type": "biochemical", "settings": "Table 2, TG2 inhibitors", "procedure": "Method for Inhibition Studies of Rec. Human Tissue Transglutaminase (rhTG2)\n250 μg lyophilized His-tagged recombinant human tissue transglutaminase (His6-rhTG2, Zedira product 1022) is reconstituted in H2O (volume depends on original volume before lyophilization) resulting in a buffer containing 10 mM Tris-HCl, 150 mM NaCl, 1 mM EDTA, 5 mM DTT, 189 mg/ml maltodextrin, pH=8.1. The rhTG2 stock solution is diluted in buffer (50 mM Tris-HCl, 7.5 mM CaCl2, 150 mM NaCl, pH=7.4) to give a working solution of 100 U/ml (based on the amine-incorporation activity measured using T036, described below).\nA 10 mM inhibitor stock solution is prepared in DMSO, and from this stock solution a serial 1:2-fold dilution series is prepared, also in DMSO. Each of these initial dilutions is subsequently diluted 1:50-fold with buffer (50 mM Tris-HCl, 7.5 mM CaCl2, 150 mM NaCl, pH=7.4) to yield the final working dilutions containing 2% (v/v) DMSO. 15 μl of inhibitor working dilution are added per well of a 96 well microtiter plate. As control, 15 μl of a 2% (v/v) DMSO solution prepared using the buffer mentioned above are added per well.\n600 μl of His6-rhTG2 working solution are added to 11.4 ml assay buffer (50 mM Iris-HCl, 7.5 mM CaCl2, 150 mM NaCl, 5 mM DTI, 13.4 mM glycine methylester, 50 μM Abz-APE(CAD-DNP)QEA-OH, (Zedira product A102; patent No.: EP 1781807B1), pH=7.4). From this master-mix solution, 285 μl are added per well containing the inhibitor. Increase in fluorescence is measured using λex=313 nm and λem=418 nm at 37° C. for 20 min. A slope of the increase in fluorescence between 10 and 20 min is calculated for determination of the IC50 value (inhibitor concentration at which 50% of the initial TG2 activity is blocked).\nAnalysis of enzymatic activity is performed by calculation of the slope of an increase in fluorescence intensity. IC50 values are calculated by plotting the enzymatic activity (as percentage from control containing 2% DMSO instead of inhibitor) against the inhibitor concentration. IC50 is defined as the inhibitor concentration blocking 50%) of initial enzyme activity.", "units": {"IC50": "nM"}}
{"smiles": "COC(=O)[C@H](CC(C)C)NC(=O)[C@@H]1CCCN1C(=O)[C@@H](NC(=O)[C@H](CCC(=O)C(=O)NC1CC1)NC(=O)c1ccccc1)C(C)C", "note": "[Compound E24, (S)-methyl 2-((S)-1-((S)-2-((S)-2-benzamido-6-(cyclopropylamino)-5,6-dioxonexan-amido)-3-methylbutanoyl)pyrrolidine-2-carboxamido)-4-methylpentanoate]", "IC50": 550}
{"smiles": "CCC(CC)CNC(=O)Cn1cccc(NC(=O)[C@H](CCC(=O)C(=O)c2cn(C)cn2)NC(=O)c2cncn2C)c1=O", "note": "[Compound E81, (S)—N-(1-(1-(2-(2-ethylbutylamino)-2-oxoethyl)-2-oxo-1,2-dihydropyridin-3-ylamino)-6-(1-methyl-1H-imidazol-4-yl)-1,5,6-trioxohexan-2-yl)-1-methyl-1H-imidazole-5-carboxamide]", "IC50": 740}
{"smiles": "CCC(CC)CNC(=O)Cn1cccc(NC(=O)[C@H](CCC(=O)C(N)=O)NS(=O)(=O)c2cccc3c(N(C)C)cccc23)c1=O", "note": "[Compound E15, (S)-2-(5-(dimethylamino)naphthalene-1-sulfonamido)-N1-(1-(2-(2-ethylbutylamino)-2-oxoethyl)-2-oxo-1,2-dihydropyridin-3-yl)-5-oxonexanediamide]", "IC50": 6000}
{"smiles": "CCC(CC)CNC(=O)Cn1cccc(NC(=O)[C@H](CCC(=O)C(=O)NC)NS(=O)(=O)c2c(Cl)nc3sccn23)c1=O", "note": "[Compound E67, (S)-2-(6-chloroimidazo[2,1-b]thiazole-5-sulfonamido)-N1-(1-(2-(2-ethylbutylamino)-2-oxoethyl)-2-oxo-1,2-dihydropyridin-3-yl)-N6-methyl-5-oxohexanediamide]", "IC50": 150}
{"smiles": "CCOC(=O)Cn1cccc(NC(=O)[C@H](CCC(=O)C(=O)NC)NC(=O)c2cncn2C)c1=O", "note": "[Compound E52, (S)-ethyl 2-(3-(2-(1-methyl-1H-imidazole-5-carboxamido)-6-(methylamino)-5,6-dioxohexanamido)-2-oxopyridin-1(2H)-yl)acetate]", "IC50": 500}
{"smiles": "CCC(CC)CNC(=O)Cn1cccc(NC(=O)[C@H](CCC(=O)C(=O)OC)NC(=O)c2cncn2C)c1=O", "note": "[Compound E77, (S)-methyl 6-(1-(2-(2-ethylbutylamino)-2-oxoethyl)-2-oxo-1,2-dihydropyridin-3-ylamino)-5-(1-methyl-1H-imidazole-5-carboxamido)-2,6-dioxohexanoate]", "IC50": 200}
{"smiles": "CCC(CC)CNC(=O)Cn1cccc(NC(=O)[C@H](CCC(=O)C(=O)NC)NC(=O)c2cnco2)c1=O", "note": "[Compound E62, (S)—N1-(1-(2-(2-ethylbutylamino)-2-oxoethyl)-2-oxo-1,2-dihydropyridin-3-yl)-N6-methyl-2-(oxazole-5-carboxamido)-5-oxohexanediamide]", "IC50": 70}
{"smiles": "CCN(CC)C(=O)Cn1cccc(NC(=O)[C@H](CCC(=O)C(=O)NC)NC(=O)c2cncn2C)c1=O", "note": "[Compound E50, (S)—N1-(1-(2-(diethylamino)-2-oxoethyl)-2-oxo-1,2-dihydropyridin-3-yl)-N6-methyl-2-(1-methyl-1H-imidazole-5-carboxamido)-5-oxohexanediamide]", "IC50": 300}
{"smiles": "CCNC(=O)C(=O)CC[C@H](NC(=O)c1cncn1C)C(=O)Nc1cccn(CC(=O)NCC(CC)CC)c1=O", "note": "[Compound E17, (S)—N1-ethyl-N6-(1-(2-(2-ethylbutylamino)-2-oxoethyl)-2-oxo-1,2-dihydropyridin-3-yl)-5-(1-methyl-1H-imidazole-5-carboxamido)-2-oxonexanediamide]", "IC50": 100}
{"smiles": "CCC(CC)CNC(=O)Cn1cccc(NC(=O)[C@H](CCC(=O)C(=O)NCOC)NC(=O)c2cncn2C)c1=O", "note": "[Compound E39, (S)—N1-(1-(2-(2-ethylbutylamino)-2-oxoethyl)-2-oxo-1,2-dihydropyridin-3-yl)-N6-(methoxymethyl)-2-(1-methyl-1H-imidazole-5-carboxamido)-5-oxohexanediamide]", "IC50": 135}
{"smiles": "CCC(CC)CNC(=O)Cn1cccc(NC(=O)[C@H](CCC(=O)C(C)=O)NC(=O)c2cncn2C)c1=O", "note": "[Compound E74, (S)—N-(1-(1-(2-(2-ethylbutylamino)-2-oxoethyl)-2-oxo-1,2-dihydropyridin-3-ylamino)-1,5,6-trioxoheptan-2-yl)-1-methyl-1H-imidazole-5-carboxamide]", "IC50": 125}
{"smiles": "CCC(CC)CNC(=O)Cn1cccc(NC(=O)[C@H](CCC(=O)C(=O)NC2CC2)NC(=O)c2cncn2C)c1=O", "note": "[Compound E19, (S)—N1-cyclopropyl-N6-(1-(2-(2-ethylbutylamino)-2-oxoethyl)-2-oxo-1,2-dihydropyridin-3-yl)-5-(1-methyl-1H-imidazole-5-carboxamido)-2-oxonexanediamide]", "IC50": 350}
{"smiles": "CNC(=O)C(=O)CC[C@H](NC(=O)c1cncn1C)C(=O)Nc1cccn(CC(=O)NCOC)c1=O", "note": "[Compound E54, (S)—N1-(1-(2-(methoxymethylamino)-2-oxoethyl)-2-oxo-1,2-dihydropyridin-3-yl)-N6-methyl-2-(1-methyl-1H-imidazole-5-carboxamido)-5-oxohexanediamide]", "IC50": 550}
{"smiles": "CCC(CC)CNC(=O)Cn1cccc(NC(=O)[C@H](CCCCC(=O)C(=O)NC)NC(=O)c2cncn2C)c1=O", "note": "[Compound E73, (S)—N1-(1-(2-(2-ethylbutylamino)-2-oxoethyl)-2-oxo-1,2-dihydropyridin-3-yl)-N8-methyl-2-(1-methyl-1H-imidazole-5-carboxamido)-7-oxooctanediamide]", "IC50": 6300}
{"smiles": "CNC(=O)C(=O)CC[C@H](NC(=O)Cc1cc(C)nn1C)C(=O)Nc1cccc(C(=O)N[C@@H](Cc2ccc(-c3ccccc3)cc2)C(=O)N2C[C@H](Oc3ccccc3)C[C@H]2C(N)=O)c1", "note": "[Compound E83, (S)—N1-(3-((S)-3-(biphenyl-4-yl)-1-((2S,4R)-2-carbamoyl-4-phenoxypyrrolidin-1-yl)-1-oxopropan-2-ylcarbamoyl)phenyl)-2-(2-(1,3-dimethyl-1H-pyrazol-5-yl)acetamido)-N6-methyl-5-oxohexanediamide]", "IC50": 2000}
{"smiles": "CCC(CC)CNC(=O)Cn1cccc(NC(=O)[C@H](CCC(=O)C(=O)NC(C)(C)C)NC(=O)c2cncn2C)c1=O", "note": "[Compound E21, (S)—N1-tert-butyl-N6-(1-(2-(2-ethylbutylamino)-2-oxoethyl)-2-oxo-1,2-dihydropyridin-3-yl)-5-(1-methyl-1H-imidazole-5-carboxamido)-2-oxonexanediamide]", "IC50": 5000}
{"smiles": "CNC(=O)C(=O)CC[C@H](NC(=O)OC(C)C)C(=O)N[C@@H](CCCNC(=N)N)C(=O)NC(C)(C)C(=O)N1C[C@H](O)C[C@H]1C(N)=O", "note": "[Compound E84, isopropyl (S)-1-((S)-1-(1-((2S,4R)-2-carbamoyl-4-hydroxypyrrolidin-1-yl)-2-methyl-1-oxopropan-2-ylamino)-5-guanidino-1-oxopentan-2-ylamino)-6-(methylamino)-1,5,6-trioxohexan-2-ylcarbamate] (Isopropoxycarbonyl-[Nle(5,6-dioxo,6-NHMe)]R[Aib][Hyp]-NH2)", "IC50": 960}
{"smiles": "CCC(CC)CNC(=O)Cn1cccc(NC(=O)[C@H](CCC(=O)C(=O)NC)NC(=O)c2ccoc2)c1=O", "note": "[Compound E61, (S)—N1-(1-(2-(2-ethylbutylamino)-2-oxoethyl)-2-oxo-1,2-dihydropyridin-3-yl)-2-(furan-3-carboxamido)-N6-methyl-5-oxohexanediamide]", "IC50": 80}
{"smiles": "CCC(CC)CNC(=O)Cn1cccc(NC(=O)[C@H](CCCC(=O)C(=O)NC)NC(=O)c2cncn2C)c1=O", "note": "[Compound E71, (S)—N1-(1-(2-(2-ethylbutylamino)-2-oxoethyl)-2-oxo-1,2-dihydropyridin-3-yl)-N7-methyl-2-(1-methyl-1H-imidazole-5-carboxamido)-6-oxoheptanediamide]", "IC50": 6000}
